In patent US11510876B2, “In vivo targeting of extracellular vesicles” (Mayo Foundation for Medical Education and Research, priority 2019, dated 2022):

How the values were obtained:
[1] = system: ^89Zr labeled stem cell derived exosomes; assay: PET imaging of methylene blue mediated homing of intravenously injected 89Zr labeled exosomes to the injected hind paw (FIG. 11); format: in vivo, mouse; conditions: 1% methylene blue in Lactated Ringer's Solution injected in hind limb paw 1 h after i.v. exosomes; PET 1 h later; opposite paw (Ringer's only) showed no accumulation
Excerpt: FIG. 11 illustrates four PET images of injected ^89Zr labeled exosomes in mice. PET images 450, 452 utilized stem cell derived exosomes, whereas PET images 454, 456 illustrate prostate cancer (PC-3) derived exosomes. Both groups of exosomes were labeled with ^89Zr, a positron emitter, which allows the exosomes to be tracked within the mouse by PET imaging. As illustrated in some or all of the PET images 450, 452, 454, 456, the heart/lungs 460, the liver 462, the gut 464/468 and 466/470 show “hotspots” of the ^89Zr labeled exosomes (homing agent mediated accumulation zones of the ^89Zr labeled exosomes). […] For PET image 452, the ^89Zr labeled stem cell derived exosomes were intravenously injected (via tail vein). Then after one hour, 1% methylene blue (in Lactated Ringer's Solution) was injected in a hind limb paw. The opposite hind limb paw received a methylene blue-free and sterile Lactated Ringer's Solution. One hour after administering the methylene blue solution, the PET image 452 was taken. […] Thus, the methylene blue homed the ^89Zr linked stem cell derived exosomes from circulation, effectively showing that the ^89Zr labeled stem cell derived exosomes targeted methylene blue.

[2] = system: ^89Zr labeled PC-3 derived exosomes; assay: as above; format: in vivo, mouse; conditions: 1% methylene blue in Lactated Ringer's Solution injected in hind limb paw 1 h after i.v. exosomes; PET 1 h later; opposite paw (Ringer's only) showed no accumulation
Description: For PET image 456, the ^89Zr labeled PC-3 derived exosomes were intravenously injected (via tail vein). Then after one hour, 1% methylene blue (in Lactated Ringer's Solution) was injected in a hind limb paw. The opposite hind limb paw received a methylene blue-free and sterile Lactated Ringer's Solution. One hour after administering the methylene blue solution, the PET image 456 was taken. […] Thus, methylene blue homed the ^89Zr labeled PC-3 derived exosomes from circulation to the paw region, effectively showing that the ^89Zr labeled PC-3 derived exosomes targeted methylene blue.

[3] = system: ^89Zr labeled A549 lung cancer derived exosomes; assay: PET imaging of methylene blue mediated homing of intravenously injected 89Zr labeled exosomes to the injected hind paw (FIG. 13); format: in vivo, mouse; conditions: 1% methylene blue in hind limb paw 1 h after i.v. exosomes; PET 1 h later; opposite paw (Ringer's only) showed no accumulation
Description: (§1) FIG. 13 illustrates methylene blue was able to home exosomes irrespective of their cellular origin. PET image 550 and 554 was taken one hour after the mouse was intravenously injected (via tail vein) with the ^89Zr labeled A549 lung cancer derived exosomes and SK-N-SH brain cancer (bone marrow metastasis) derived exosomes, respectively. […] Then after one hour, 1% methylene blue (in Lactated Ringer's Solution) was injected in a hind limb paw. The opposite hind limb paw received a methylene blue-free and sterile Lactated Ringer's Solution. One hour after administering the methylene blue solution, the PET image 552 and 556 was taken. […] Thus, the methylene blue homed the ^89Zr labeled A549 and SK-N-SH derived exosomes from circulation showing that it can home extracellular vesicles independent of their cellular origin.

[4] = system: SK-N-SH brain cancer (bone marrow metastasis) derived exosomes; assay: as above; format: in vivo, mouse; conditions: 1% methylene blue in hind limb paw 1 h after i.v. exosomes; PET 1 h later; opposite paw (Ringer's only) showed no accumulation
Description: as §1

[5] = system: ^89Zr labeled stem cell derived exosomes; assay: Time-lapse PET imaging of the bio-distribution of 89Zr labeled exosomes after methylene blue paw injections (FIG. 12); format: in vivo, mouse
Description: FIG. 12 illustrates four time-lapse PET images showing the bio-distribution of injected ^89Zr labeled stem cell derived exosomes in a mouse. Similarly to the experiment illustrated in FIG. 11, stem cell derived exosomes were labeled with ^89Zr, a positron emitter, which allows the exosomes to be tracked within the mouse by PET imaging. Then, the ^89Zr labeled stem cell derived exosomes were injected intravenously into the mouse, and subsequently imaged thirty minutes after the injection, shown in PET image 500. Illustrated in PET image 500, and also the other PET images 502, 504, 506, are “hotspots” of the administered ^89Zr labeled stem cell derived exosomes (homing agent mediated accumulation zones of the ^89Zr labeled exosomes) at specific locations within the mouse (e.g., the heart 510, the liver 512, and the gut 514). […] Thus, the ^89Zr labeled stem cell derived exosomes were effectively homed to the tissue that contained methylene blue. After administering the methylene blue solution, 20 additional hours were lapsed before completing a second imaging of the mouse (at PET image 504). […] Then, immediately after acquiring PET image 504, the mouse was injected with the methylene blue solution at the hind paw (designated numeral 520), opposite the first hind paw injected with methylene blue (designated numeral 516). One hour after the second injection at the opposite hind paw at reference numeral 520, PET image 506 was acquired.

[6] = system: extracellular vesicles; assay: Homing of extracellular vesicles to the target site by an injected homing agent; format: in vivo; conditions: subcutaneous area in foot pad of a mouse, 500 ng also printed as 1.6 nmol
Excerpt: We have discovered that non-toxic doses of phenothiazine derivatives or polyethylene glycols are useful for the homing of exogenous extracellular vesicles to specific tissues in the body. This discovery has many potential applications in therapy and diagnosis in its ability to spatially concentrate extracellular vesicles. These methods can improve the homing of extracellular vesicles to diseased tissues, as well as enriched sampling and extraction of extracellular vesicles for diagnostics at low cost. Rather than using extensively modified extracellular vesicles (e.g., with biological and/or chemical modifications), which can be complex and costly, extracellular vesicles can be targeted by using little to no modification of the extracellular vesicles themselves. […] Our initial findings show broad applicability with regard to the extracellular vesicles type/source and the target tissue in the context of homing using phenothiazine derivatives or polyethylene glycols. At present, the homing is effective with as low as 500 ng (1.6 nmol) of methylene blue injected at the target site. In this example, the target site is the subcutaneous area in foot pad of a mouse, with good perfusion of the methylene blue, so the effective amount of methylene blue for extracellular vesicle homing could be much lower than 500 ng (1.6 nmol).

Structure (SMILES): CN(C)c1ccc2nc3ccc(=[N+](C)C)cc-3sc2c1 [methylene blue]
- accumulation of ^89Zr labeled stem cell derived exosomes in the hind paw that received methylene blue [1]: significant accumulation
- accumulation of ^89Zr labeled PC-3 derived exosomes in the hind paw that received methylene blue [2]: significant accumulation
- accumulation of ^89Zr labeled A549 derived exosomes in the hind paw that received methylene blue (PET image 552) [3]: significant accumulation
- accumulation of ^89Zr labeled SK-N-SH derived exosomes in the hind paw that received methylene blue (PET image 556) [4]: significant accumulation
- homing of exosomes to methylene blue injection sites (PET image 502) ([5]; 1% methylene blue injected in a hind paw and a front paw 19 hours after i.v. exosomes, imaged 3 h post-methylene blue injection): homing of exosome to hind paw
- signal from exosomes at methylene blue injection sites (PET image 504) ([5]; 20 additional hours after the methylene blue injection, hind paw and front paw): persistence of signal
- accumulation of exosomes at second methylene blue injection site, opposite hind paw (PET image 506) ([5]; second methylene blue injection about two days after exosome injection, PET one hour later): accumulated at the target site 520
- lowest amount at which homing is effective [6]: 500 ng
